The values below come from ChEMBL document CHEMBL5113529, “Design, Synthesis, and Biological Evaluation of Dual-Target COX-2/CYP51 Inhibitors for the Treatment of Fungal Infectious Diseases” (J Med Chem, 2022).

Active and inactive are the calls of the source. The calls are words filed in the database; no cut-off is given here.

Data set [1] in a line: Toxicity in mouse infected with Candida albicans assessed as liver injury at 10 ug per 20 g, ip administered on day 2, 4, 6, 8, 10 and 12 and measured on day 14 by H and E staining based assay. It is filed as organism-based. The note with it: in vivo, 336 h, dose 10 µg, time 14 day.
Data set [2] concerns the target Prostaglandin G/H synthase 1 (Homo sapiens, UniProt P23219). Description: Inhibition of COX-1 (unknown origin) using arachidonic acid as substrate preincubated for 10 mins followed by substrate addition and measured after 2 mins by immunoassay.
Data set [3] concerns the target T1, Prostaglandin G/H synthase 2 (Homo sapiens, UniProt P35354).
T1 sequence (P35354 whole entry): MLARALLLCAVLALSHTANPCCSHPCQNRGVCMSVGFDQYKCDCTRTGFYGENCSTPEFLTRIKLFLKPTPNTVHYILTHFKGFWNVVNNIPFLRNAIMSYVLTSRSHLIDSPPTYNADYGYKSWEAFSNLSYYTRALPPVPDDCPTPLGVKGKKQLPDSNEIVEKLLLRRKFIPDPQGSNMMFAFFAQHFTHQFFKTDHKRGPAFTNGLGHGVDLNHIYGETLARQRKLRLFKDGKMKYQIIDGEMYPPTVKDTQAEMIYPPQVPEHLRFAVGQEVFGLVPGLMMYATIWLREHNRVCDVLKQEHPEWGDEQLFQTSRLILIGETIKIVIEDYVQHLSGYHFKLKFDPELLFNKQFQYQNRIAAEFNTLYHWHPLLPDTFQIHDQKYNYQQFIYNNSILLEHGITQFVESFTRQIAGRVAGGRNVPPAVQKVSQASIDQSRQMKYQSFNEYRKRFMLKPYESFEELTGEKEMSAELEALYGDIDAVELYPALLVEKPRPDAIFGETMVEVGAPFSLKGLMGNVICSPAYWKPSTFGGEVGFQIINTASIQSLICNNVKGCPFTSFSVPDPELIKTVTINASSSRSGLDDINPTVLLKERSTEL
Description: Inhibition of COX-2 (unknown origin) using arachidonic acid as substrate preincubated for 10 mins followed by substrate addition and measured after 2 mins by immunoassay.

In data set [4] the test system is Candida albicans. Description: Antifungal actvity against Candida albicans ATCC SC5314 infected in mouse assessed as reduction in infection at 10 ug per 20 g, ip administered on day 2, 4, 6, 8, 10 and 12 and measured on day 14. Format: functional, organism-based. The following applies: time 14.0 day.
Data set [5] in a line: Toxicity in Candida albicans ATCC SC5314 infected-mouse assessed as effect on body weight at 10 ug per 20 g, ip administered on day 2, 4, 6, 8, 10 and 12 and measured on day 14. The following applies: in vivo, 336 h, dose 10 µg, time 14 day. Format: organism-based.
Data set [6] deals with Candida albicans. Kind of data set: Antifungal actvity against Candida albicans ATCC SC5314 infected in mouse assessed as shrinking of infection region at 10 ug per 20 g, ip administered on day 2, 4, 6, 8, 10 and 12 and measured on day 14. Format: functional, organism-based. The following applies: dose 10.0 µg, time 14.0 day.
Data set [7] is described as follows: Toxicity in mouse infected with Candida albicans assessed as lung injury at 10 ug per 20 g, ip administered on day 2, 4, 6, 8, 10 and 12 and measured on day 14 by H and E staining based assay. Format: organism-based. The note with it: in vivo, 336 h, dose 10 µg, time 14 day.
Data set [8] in a line: Toxicity in mouse infected with Candida albicans assessed as spleen injury at 10 ug per 20 g, ip administered on day 2, 4, 6, 8, 10 and 12 and measured on day 14 by H and E staining based assay. It is filed as organism-based. The note with it: in vivo, 336 h, dose 10 µg, time 14 day.
Data set [9] can be described thus: Toxicity in mouse infected with Candida albicans assessed as kidney injury at 10 ug per 20 g, ip administered on day 2, 4, 6, 8, 10 and 12 and measured on day 14 by H and E staining based assay. It is filed as organism-based. The note with it: in vivo, 336 h, dose 10 µg, time 14 day.
A short description of data set [10]: Toxicity in mouse infected with Candida albicans assessed as heart injury at 10 ug per 20 g, ip administered on day 2, 4, 6, 8, 10 and 12 and measured on day 14 by H and E staining based assay. It is filed as organism-based. The following applies: in vivo, 336 h, dose 10 µg, time 14 day.
For data set [11], the system named is Candida albicans. Description: Induction of morphological changes in Candida albicans ATCC SC5314 assessed as disappearance of nucleus measured for 48 to 72 hrs by transmission electron microscopic analysis. Format: functional, organism-based. The following applies: time 48-72 hrs.
For data set [12], the species on record is Mus musculus. Description: Antiinflammatory activity against mouse infected with Candida albicans ATCC SC5314 assessed as reduction in MMP-9 expression in spleen by Western blot analysis. Format: functional, organism-based. A general note: In western blotting, separated proteins are transferred to a membrane and probed.
For data set [13], the species on record is Mus musculus. Kind of data set: Antiinflammatory activity against mouse infected with Candida albicans ATCC SC5314 assessed as reduction in NLRP3 expression in spleen by Western blot analysis. It is filed as functional, organism-based.
The species entered for data set [14] is Mus musculus. Kind of data set: Antiinflammatory activity in mouse infected with Candida albicans ATCC SC5314 assessed as reduction in COX-2 expression in spleen by hematoxylin staining based inverted microscopic analysis (reference value: 83.52 a.u.). Format: functional.
The species named for data set [15] is Mus musculus. Kind of data set: Antiinflammatory activity in mouse infected with Candida albicans ATCC SC5314 assessed as reduction in MMP-9 expression in spleen by hematoxylin staining based inverted microscopic analysis (reference value: 36.74 a.u.). Format: functional.
Data set [16] has as its system Candida albicans. Kind of data set: Antifungal actvity against Candida albicans ATCC SC5314 infected in mouse assessed as reduction in fungal infection at 10 ug per 20 g, ip administered on day 2, 4, 6, 8, 10 and 12 and measured on day 14 in presence of naproxen. It is filed as functional, organism-based. The note with it: dose 10.0 µg, time 14.0 day.
For a further data set, the system named is Aspergillus fumigatus. Kind of data set: Antifungal activity against Aspergillus fumigatus KM8001 assessed as fungal growth inhibition measured after 72 hrs in presence of naproxen by double dilution method. It is filed as functional.
Another data set concerns Candida tropicalis. Kind of data set: Antifungal activity against Candida tropicalis ATCC 1369 assessed as fungal growth inhibition measured after 72 hrs in presence of naproxen by double dilution method. It is filed as functional.
The subject of the next data set is Pichia kudriavzevii. Description: Antifungal activity against Candida krusei ATCC 6258 assessed as fungal growth inhibition measured after 72 hrs in presence of naproxen by double dilution method. It is filed as functional.
For another data set, the system named is Cryptococcus neoformans. Kind of data set: Antifungal activity against Cryptococcus neoformans ZKCC 2209 assessed as fungal growth inhibition measured after 72 hrs in presence of naproxen by double dilution method. Format: functional.
Data set [17] has as its system Candida albicans. Description: Antifungal activity against fluconazole- resistant Candida albicans 632 assessed as fungal growth inhibition measured after 72 hrs in presence of naproxen by double dilution method. It is filed as functional.
Data set [18] concerns Candida albicans. Description: Antifungal activity against fluconazole- resistant Candida albicans 904 assessed as fungal growth inhibition measured after 72 hrs in presence of naproxen by double dilution method. It is filed as functional.
Data set [19] is described as follows: Toxicity in mouse infected with Candida albicans assessed as AST level in plasma at 10 ug per 20 g, ip administered on day 2, 4, 6, 8, 10 and 12 and measured on day 14 in presence of naproxen (reference value: 74.9 +/- 6.7 IU/L). The following applies: in vivo, 336 h, dose 10 µg, time 14 day. It is filed as organism-based.
A short description of data set [20]: Toxicity in mouse infected with Candida albicans assessed as ALT level in plasma at 10 ug per 20 g, ip administered on day 2, 4, 6, 8, 10 and 12 and measured on day 14 in presence of naproxen (reference value: 43.6 +/- 4.4 IU/L). It is filed as organism-based. The following applies: in vivo, 336 h, dose 10 µg, time 14 day.
Data set [21] is filed under the species Mus musculus. Kind of data set: Antiinflammatory activity in mouse infected with Candida albicans ATCC SC5314 assessed as reduction in COX-2 expression in spleen in presence of naproxen by hematoxylin staining based inverted microscopic analysis. It is filed as functional.
Data set [22] is filed under the species Mus musculus. Kind of data set: Immunostimulatory activity in mouse infected with Candida albicans ATCC SC5314 assessed as increase in CD3+ expression level in spleen in presence of naproxen by immunohistochemical analysis. It is filed as functional, organism-based.

Prostaglandin G/H synthase 1, sequence (P23219 whole entry): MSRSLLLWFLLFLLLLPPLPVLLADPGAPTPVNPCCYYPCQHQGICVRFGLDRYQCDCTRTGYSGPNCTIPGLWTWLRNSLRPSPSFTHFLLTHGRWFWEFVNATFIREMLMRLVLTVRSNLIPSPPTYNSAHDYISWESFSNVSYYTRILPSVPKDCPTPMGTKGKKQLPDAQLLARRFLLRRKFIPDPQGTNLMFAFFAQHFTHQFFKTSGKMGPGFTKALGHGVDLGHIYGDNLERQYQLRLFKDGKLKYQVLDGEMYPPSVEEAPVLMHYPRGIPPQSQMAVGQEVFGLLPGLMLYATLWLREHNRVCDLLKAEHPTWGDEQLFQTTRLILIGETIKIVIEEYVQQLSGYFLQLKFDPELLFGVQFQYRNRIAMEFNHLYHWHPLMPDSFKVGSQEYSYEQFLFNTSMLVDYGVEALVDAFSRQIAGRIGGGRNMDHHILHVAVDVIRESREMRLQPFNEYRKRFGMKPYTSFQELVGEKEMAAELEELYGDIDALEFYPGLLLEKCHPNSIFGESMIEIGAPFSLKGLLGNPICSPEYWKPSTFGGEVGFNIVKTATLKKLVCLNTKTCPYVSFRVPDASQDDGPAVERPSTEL

One may read the IC50 as the concentration at which inhibition is half-maximal. Take `COc1ccc2cc([C@H](C)C(=O)NC(Cn3cncn3)C(=O)c3ccccc3)ccc2c1` (stereo not given in full): the Activity result in data set [1], in [5], in data set [7], in [8], in data set [9] and in [10] was “Non-Toxic” each time. Also, the Activity amounted to 20.15 a.u in the data set listed under Mus musculus [14] and 12.13 a.u in the data set listed under Mus musculus [15]. The values for the IC50 in [2] and in [3] were over 50 µM and 1.96 µM, respectively. In addition, the result in the data set on Candida albicans [4], in the data set on Candida albicans [6], with Candida albicans [11], in the data set listed under Mus musculus [12] and in the data set filed under Mus musculus [13] was Active.

Usually MIC50 stands for the lowest concentration that inhibits either 50% of growth or 50% of the strains tested, depending on the study. As for `OC(Cn1cncn1)(Cn1cncn1)c1ccc(F)cc1F` [FLUCONAZOLE], the Activity entry in data set [1] was “Non-Toxic”; in [7] it was “Non-Toxic”; in data set [8], “Non-Toxic”; in [9] it was “Non-Toxic”; in [10] it was “Non-Toxic”; in data set [19] it was 76.4 IU/L. In addition, the Activity in [20] is recorded as 42.6 IU/L; in the data set filed under Mus musculus [21] it was 55.7 a.u. In addition, the result in the data set on Candida albicans [16], in the data set with Candida albicans [4] and in the data set filed under Mus musculus [22] was Active. Moreover, the MIC50 amounted to 4 µg/mL in the data set on Aspergillus fumigatus; 0.5 µg/mL in the data set with Candida tropicalis; 1 µg/mL with Pichia kudriavzevii; 0.25 µg/mL in the data set on Cryptococcus neoformans; 4 µg/mL with Candida albicans [17]; 2 µg/mL in the data set with Candida albicans [18].

With `CC(C)NC(=O)[C@@H](Cn1ccnc1)NC(=O)[C@@H](C)c1cccc(C(=O)c2ccccc2)c1`, the IC50 in [2] was over 50 µM; in [3], 3.02 µM. Also, the results for the Activity result (in data set [5]; in the data set filed under Mus musculus [14]; in the data set filed under Mus musculus [15]) were “Non-Toxic”, 20.15 a.u and 12.13 a.u, respectively. The outcome in the data set on Candida albicans [6], in the data set filed under Mus musculus [12] and in the data set filed under Mus musculus [13] was Active.
